Experiments:
[1] = system: IL-1β cytokine output from THP-1 cells; test: THP-1 AlphaLISA IL-1β cytokine assay; assay type: cell-based; conditions: Homo sapiens, THP-1, differentiated THP-1 cells
Description: (§1) Measuring Inhibitory Effects on IL-1β and IL-6 Cytokine Output from THP-1s
(§2) The cytokine inhibition profiles of compounds of formula (I) were determined in a differentiated THP-1 cell assay. All assays were performed in RPMI-1640 growth medium (Gibco), supplemented with 10% fetal bovine serum (FBS; Gibco), 1% penicillin-streptomycin and 1% sodium pyruvate unless specified otherwise. The IL-1β and IL-6 cytokine inhibition assays were each run in a background of differentiated THP-1 cells as described below. All reagents described were from Sigma-Aldrich unless specified otherwise. Compounds were prepared as 10 mM DMSO stocks.
(§3) THP-1 cells were expanded as a suspension up to 80% confluence in appropriate growth medium. Cells were harvested, suspended, and treated with an appropriate concentration of phorbol 12-myristate 13-acetate (PMA) over a 72 hr period (37° C./5% CO2).
(§4) Following 72 hrs of THP-1 cell incubation, cellular medium was removed and replaced with fresh growth media containing 1% of FBS. Working concentrations of compounds were prepared separately in 10% FBS treated growth medium and pre-incubated with the cells for 30 minutes (37° C./5% CO2). Following the 30 minute compound pre-incubation, THP-1s were treated with an appropriate concentration of LPS and the THP-1s were subsequently incubated for a 24 hr period (37° C./5% CO2). An appropriate final concentration of Nigericin was then dispensed into the THP-1 plates and incubated for 1 hour (37° C./5% CO2) before THP-1 supernatants were harvested and collected in separate polypropylene 96-well holding plates.
(§5) Reagents from each of the […] and IL-6 commercial kits (Perkin Elmer) were prepared and run according to the manufacturer's instructions. Subsequently, fluorescence signal detection in a microplate reader was measured (EnVision® Multilabel Reader, Perkin Elmer).
(§6) Percentage inhibition was calculated per cytokine by normalising the sample data to the high and low controls used within each plate (+/−LPS respectively). Percentage inhibition was then plotted against compound concentration and the 50% inhibitory concentration (IC50) was determined from the resultant concentration-response curve.

[2] = system: IL-6 cytokine output from THP-1 cells; test: THP-1 AlphaLISA IL-6 cytokine assay; assay type: cell-based; conditions: Homo sapiens, THP-1, differentiated THP-1 cells
Description: as §1, §2, §3, §4, §5, §6

[3] = system: NRF2 (nuclear factor erythroid 2-related factor 2); test: NRF2 +/−GSH activation assay (DiscoverX PathHunter NRF2 translocation kit, U2OS cells); assay type: cell-based; conditions: Homo sapiens; for Emax: U2OS, normalised to dimethyl fumarate high control; for EC50: U2OS PathHunter cells, 6 hours
[4] = Hepatocyte stability assay, human; assay type: in vitro ADME; conditions: cryopreserved hepatocytes, 10 μM compound, 0.5×10^6 cells/mL, 60 min, read-out: T½
Source text: (§7) Defrosted cryo-preserved hepatocytes (viability>70%) may be used to determine the metabolic stability of a compound via calculation of intrinsic clearance (Clint; a measure of the removal of a compound from the liver in the absence of blood flow and cell binding). Clearance data are particularly important for in vitro work as they can be used in combination with in vivo data to predict the half-life and oral bioavailability of a drug.
(§8) The metabolic stability in hepatocytes assay involves a time-dependent reaction using both positive and negative controls. The cells were pre-incubated at 37° C. and spiked with test compound (and positive control); samples were taken at pre-determined time intervals and analysed to monitor the change in concentration of the initial drug compound over 60 minutes. A buffer incubation reaction (with no hepatocytes present) acted as a negative control and two cocktail solutions, containing compounds with known high and low clearance values (verapamil/7-hydroxycoumarin and propranolol/diltiazem), acted as positive controls. • 1. The assay was run with a cell concentration of 0.5×10^6 cells/mL in Leibovitz buffer. • 2. All compounds and controls were run in duplicate. • 3. Compound concentration was 10 μM. • 4. All compounds and controls were incubated with both cells and buffer to show turnover was due to hepatic metabolism. • 5. All wells on the incubation plate had 326.7 μL of either cells or buffer added. • 6. Prior to assay, cell and buffer-only incubation plates were preincubated for 10 mins at 37° C. • 7. The assay was initiated by adding compounds, 3.3 μL of 1 mM in 10% DMSO-90% Buffer; final DMSO concentration is 0.1%. • 8. Samples were taken at regular timepoints (0, 5, 10, 20, 40, 60 min) until 60 mins. • 9. Sample volume was 40 μL and was added to 160 μL of crash solvent (acetonitrile with internal standard) and stored on ice. • 10. At the end of the assay, the crash plates were centrifuged at 3500 rpm for 20 mins at 4° C. • 11. 80 μL of clear supernatant was removed and mixed with 80 μL of deionised water before being analysed by LC-MS/MS.
(§9) Raw LC-MS/MS data was exported to, and analysed in, Microsoft Excel for determination of intrinsic clearance. The percentage remaining of a compound was monitored using the peak area of the initial concentration as 100%. Intrinsic clearance and half-life values were calculated using a graph of the natural log of percentage remaining versus the time of reaction in minutes. Half-life (min) and intrinsic clearance (Clint in μL min^−1 10^−6 cells) values were calculated using the gradient of the graph (the elimination rate constant, k) and Equations 1 and 2.

[5] = system: hepatocytes; test: Hepatocyte stability assay, human; assay type: in vitro ADME; conditions: 10 μM compound, 0.5×10^6 cells/mL, 60 min
Source text: as §7, §8, §9

[6] = Hepatocyte stability assay, mouse; assay type: in vitro ADME; conditions: cryopreserved hepatocytes, 10 μM compound, 0.5×10^6 cells/mL, 60 min, read-out: T½
Source text: as §7, §8, §9

[7] = system: hepatocytes; test: Hepatocyte stability assay, mouse; assay type: in vitro ADME; conditions: 10 μM compound, 0.5×10^6 cells/mL, 60 min
Source text: as §7, §8, §9

[8] = LPS 24 hr then Nigericin 1 hour
[9] = +GSH, 30 minute compound-GSH pre-incubation

SMILES	IC50 [1, 8] [µM]	IC50 [2, 8] [µM]	Emax ([3]; +GSH) [%]	Emax ([3]; −GSH) [%]	EC50 [3, 9] [µM]	EC50 ([3]; −GSH) [µM]	half-life at 10 μM [4] [min]	CIint [5] [μL min^−1 10^−6 cells]	half-life at 10 μM [6] [min]	CIint [7] [μL min^−1 10^−6 cells]	IC50 ([1]; from repeated experiments) [µM]	IC50 ([2]; from repeated experiments) [µM]
C=C(CC(=O)OC1(c2ccc(SC(F)(F)F)cc2)CCC1)C(=O)OCC(=O)O [Example 34, 2-((2-methylene-4-oxo-4-(1-(4-((trifluoromethyl)thio)phenyl)cyclobutoxy)butanoyl)oxy)acetic acid]	5.1	2.7	2.8	0	> 100	> 54.8	116	11	23	74		
C=C(CC(=O)OC1(c2ccc(C(F)(F)F)cc2)CCC1)C(=O)OCCC(=O)O [Example 22, 3-((2-methylene-4-oxo-4-(1-(4-(trifluoromethyl)phenyl)cyclobutoxy)butanoyl)oxy)propanoic acid]	10.3	11.2	183	225	22.3	14.9	156	9	12	128		
C=C(CC(=O)OC1(c2cc(Cl)ccc2Cl)CCC1)C(=O)OCC(=O)O [Example 5, 2-((4-(1-(2,5-dichlorophenyl)cyclobutoxy)-2-methylene-4-oxobutanoyl)oxy)acetic acid]	10.6	5.3	185	208	25.4	16	172	9	24	80		
C=C(CC(=O)OC1(c2ccc(Cl)cc2)CCC1)C(=O)OCC(=O)O [Example 4, 2-((4-(1-(4-chlorophenyl)cyclobutoxy)-2-methylene-4-oxobutanoyl)oxy)acetic acid]	12.4	6.9	171	192	28.9	19	189	8	28	69		
C=C(CC(=O)OC1(c2ccc(C(F)(F)F)cc2)CCC1)C(=O)OCC(=O)O [Example 2, 2-((2-methylene-4-oxo-4-(1-(4-(trifluoromethyl)phenyl)cyclobutoxy)butanoyl)oxy)acetic acid]	7.7	5.2	167	217	21.6	15.4	> 460	<3	38	50	9.1	7.7

From patent US20230399289A1, “ITACONIC ACID DERIVATIVES” (Sitryx Therapeutics Limited, priority 2020, published 2023)
